The source of these data is patent publication US9670155B2, “Pyrrolidine derivatives as oxytocin/vasopressin V1a receptors antagonists” (ObsEva S.A., priority 2013, dated 2017).

Data set [1] has as its system spontaneous uterine contractions. The data set can be described thus: Inhibition of spontaneous uterine contractions in anesthetized late-term pregnant rat. Format: in vivo. The note with it: oral route, 10, 30 or 60 mg/kg. An excerpt: Late-term pregnant (certified at days 19-21 of pregnancy) Sprague Dawley CD (SD) BR female rats (Charles River, Calco, Italy), weighing 350-400 g were anesthetized with urethane (1.05 g/kg, i.p.) and placed on a homeothermic operating table. A midline incision at the hypogastrium level was made, one pregnant uterine horn exposed and its tubal end (near the ovary) was closed by a ligature with surgical silk. Corresponding to the fetus close to the ovary, the uterine-horn wall was incised taking care not to injure the adjacent placenta and PE240 tubing with a latex balloon (9 mm length when empty, capacity 0.1 mL; Radnoti, Monrovia, Calif., USA) on the top was inserted into the lumen and secured to the uterine wall with surgical silk. After filling the internal cavity of the latex balloon with 0.1 mL of sterile physiological saline solution, the catheter was connected to an amplifying/recording system (MacLab, ADInstruments Pty Ltd, Castle Hill, Australia) via a P231D Gould-Statham pressure transducer. […] After the surgical preparation, a 30-min stabilization period was observed and then the effects of increasing doses of compounds of the present invention (given as 10-min i.v. infusion, bolus i.v. or p.o.) were evaluated by measuring the resulting uterine contractions. For the i.v. administration (infusion or bolus) the uterine contractile activity was quantified by calculating the AUC during the 10-min injection period. The percent variation of the AUC values relative to the spontaneous uterine response observed after each compound administration was calculated in comparison to the value recorded before the first dose-administration (basal value). The effect of test compounds of the present invention was evaluated by comparing pre- and post-treatment luminal uterine pressure values. […] Statistical differences between treatment groups at each time-point were determined by using one-way ANOVA followed by Tukey test. […] Contractions were continuously recorded and area-under-the-curve (AUC) integrated over 10-min time intervals.

A short description of data set [2]: Isomeric interconversion in oral and intravenous dose formulations (HPLC). Type of data set: physicochemical. The note with it: oral (Labrasol:water 1:1) and intravenous (NP3S) dose formulations, pre- and post-dose.
Data set [3] in a line: Qualitative solubility/crystallisation tests on 15 mg scale. Format: physicochemical.
For data set [4] the following is noted: nominal 30 mg/kg. The procedure: The animals used in this study were Sprague-Dawley, Crl: CD®BR albino rats. All animals were supplied by Charles River UK Ltd (Margate, Kent, UK). Animals were in the weight range 200-260 g and were approximately 2 months old. Rats were given a unique identity number and were identified by unique tail markings plus cage location.
The dose groups were as follows: 4 female were given an oral dose and 4 female were given an intravenous dose.
Dose formulations were prepared in an appropriate matrix; intravenous doses were prepared in NP3S, whilst oral doses were prepared in Labrasol:water (1:1 v/v).

Regarding `CO/N=C1\C[C@@H](CO)N(C(=O)c2ccc(-c3ccccc3C)cc2)C1` [(3E,5S)-5-(hydroxymethyl)-1-[(2′-methyl-1,1′-biphenyl-4-yl)carbonyl]pyrrolidin-3-one O-methyloxime, reference compound], the “inhibition of uterine contraction (in words)” value in data set [1] (any time during the 170-180 minutes observation) is “no inhibition of uterine contraction”.
Consider `CO/N=C1/C[C@@H](CO)N(C(=O)c2ccc(-c3ccccc3C)cc2)C1` [(3Z,5S)-5-(hydroxymethyl)-1-[(2′-methyl-1,1′-biphenyl-4-yl)carbonyl]pyrrolidin-3-one O-methyloxime], for which the Uterine contractions inhibition in data set [1] (5 to 15 min after administration) is reported as 15%; in data set [1] (170-180 minutes after administration), 42%. Besides, the “interconversion to E-isomer during dose preparation or administration” value in data set [2] was “no detectable interconversion”. In addition, the “Dissolves in:” value in data set [3] (solvent DIPE, hot) was 40 vol; in data set [3] (solvent IPA, hot) it was 4 vol; in data set [3] (solvent MIBK, hot) it was 4 vol; in data set [3] (solvent THF, cold), 4 vol; in data set [3] (solvent heptanes), “insoluble in 20 vol”; in data set [3] (solvent tBuOH, hot), 6 vol. For the same compound, the “Dissolves in:” value in data set [3] (solvent toluene, cold) worked out at 2 vol.
As to `CO/N=C1/C[C@@H](CO)N(C(=O)c2ccc(-c3ccccc3C)cc2)C1` [[^14C]-(3Z,5S)-5-(hydroxymethyl)-1-[(2′-methyl-1,1′-biphenyl-4-yl)carbonyl]pyrrolidin-3-one O-methyloxime], the “isomeric interconversion in vivo” value in data set [4] (female rats, oral or intravenous dose) was “no detectable isomeric interconversion”. Besides, the “presence of [14C]-E-isomer in plasma” value in data set [4] (rat plasma up to 6 hours after oral or intravenous administration) is on record as “no evidence”.
